US12502380B2, “MrgprX2 antagonists for the treatment of inflammatory disorders” (Dermira, Inc., priority 2019, dated 2025)

Target: T1, Human MrgprX2 (Homo sapiens, UniProt Q96LB1)
T1 construct: expressed in transfected cells
T1 sequence (Q96LB1 1-330): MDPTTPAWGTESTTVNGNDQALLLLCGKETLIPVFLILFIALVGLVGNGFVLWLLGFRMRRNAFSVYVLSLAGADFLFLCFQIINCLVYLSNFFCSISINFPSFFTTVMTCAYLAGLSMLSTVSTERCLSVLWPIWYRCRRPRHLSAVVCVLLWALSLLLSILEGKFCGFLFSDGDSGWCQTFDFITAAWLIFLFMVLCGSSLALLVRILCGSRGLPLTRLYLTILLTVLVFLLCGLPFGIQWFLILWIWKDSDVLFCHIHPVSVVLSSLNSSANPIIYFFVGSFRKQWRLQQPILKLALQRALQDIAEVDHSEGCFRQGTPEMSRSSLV
Assay: Human MrgprX2 antagonist FLIPR intracellular calcium mobilization assay
Format: cell-based
Conditions: antagonist activity, recombinant hMrgpMRGPRX2 expressing cells, read-out: Human MrgprX2 Antagonist pIC50 (converted)
Description: Potent and selective hMrgpMRGPRX2 compounds have been generated from compounds identified during a high throughput screening (HTS) campaign and followed up with cycles of structure activity based medicinal chemistry efforts. These compounds were characterized in recombinant hMrgpMRGPRX2 expressing cells for their antagonist activity and the potency was confirmed in the human mast cell line LAD-2, where the target is endogenously expressed. The assays used to determine potencies are functional read-out looking at intracellular calcium mobilization using the FLIPR™ technology. In these FLIPR assays, we test the identified compounds using recombinant cellular systems expressing mouse MrgprB2, mouse MrgprA1, gerbil MrgpMRGPRX2 orthologue, Chinese hamster MrgpMRGPRX2 orthologue and cynomolgus monkey MrgpMRGPRX2 orthologue, respectively for orthologue activity.

| SMILES | IC50 |
| --- | --- |
| C[C@H](O)CN(C)C(=O)Nc1ncc(Oc2cc(C#N)ccc2F)s1 [Compound E194] | 501 nM |
| CCN(C[C@H](C)O)C(=O)Nc1ncc(Oc2ccnc(F)c2)s1 [Compound E185] | 2 nM |
| CN1CCC[C@@H]1C(=O)Nc1ncc(Oc2ccc(C#N)cc2)s1 [Compound E087, (2R)—N-[5-(4-cyanophenoxy)thiazol-2-yl]-1-methyl-pyrrolidine-2-carboxamide] | 2510 nM |
| CN1CCC[C@@H]1C(=O)Nc1ncc(Cc2cccc(F)c2)s1 [Compound E054, (2R)—N-[5-[(3-fluorophenyl)methyl]thiazol-2-yl]-1-methyl-pyrrolidine-2-carboxamide] | 39.8 nM |
| CC1(C(=O)Nc2ncc(CC3CCCC3)s2)CCOCC1 [Compound E097] | 2000 nM |
| C[C@H](O)CN(C)C(=O)Nc1ncc(Oc2cncc(C(F)(F)F)c2)s1 [Compound E179] | 3980 nM |
| C[C@H](O)CN(C)C(=O)Nc1ncc(Oc2ccccc2)s1 [Compound E149] | 2 nM |
| CC1(C(=O)Nc2ncc(Cc3cc(F)cc(F)c3)s2)CCOCC1 [Compound E044] | 15.8 nM |
| CC(C)(C(=O)Nc1ncc(Cc2ccccc2F)s1)N1CCOCC1 [Compound E003] | 39.8 nM |
| C[C@@H](O)CN(C)C(=O)Nc1ncc(Oc2cccc(F)c2)s1 [Compound E150] | 1.58 nM |
| CCN(CCO)C(=O)Nc1ncc(Oc2ccc(F)cc2)s1 [Compound E186] | 31.6 nM |
| C[C@@]1(C(=O)Nc2ncc(Oc3cccc(F)c3)s2)CCOC1 (single isomer, unassigned) [Compound E083, N-[5-(3-fluorophenoxy)thiazol-2-yl]-3-methyl-tetrahydrofuran-3-carboxamide] | 3.98 nM |
| CC(=O)N1CCC(C)(C(=O)Nc2ncc(Cc3ccccc3F)s2)CC1 [Compound E059, 1-acetyl-N-[5-[(2-fluorophenyl)methyl]thiazol-2-yl]-4-methyl-piperidine-4-carboxamide] | 3160 nM |
| CC(C(=O)Nc1ncc(Cc2ccccc2F)s1)N1CCCC1 (centres unmarked) [Compound E017] | 1260 nM |
| CC1(C(=O)Nc2ncc(Cc3cccc(F)c3F)s2)CCOCC1 [Compound E095] | 158 nM |
| CC(C)NC(=O)c1nc(F)c(Cc2ccc(F)cc2)s1 [Compound E220, 4-fluoro-5-[(4-fluorophenyl)methyl]-N-isopropyl-thiazole-2-carboxamide] | 6310 nM |
| CC1(C(=O)Nc2ncc(Cc3cc(F)ccc3F)s2)COC1 [Compound E096] | 50.1 nM |
| CCN(C[C@H](C)O)C(=O)Nc1ncc(Oc2ccc(F)cc2C#N)s1 [Compound E191] | 794 nM |
| CC(C)C(=O)Nc1ncc(Oc2cccnc2)s1 [Compound E071] | 6310 nM |

| SMILES | IC50 |
| --- | --- |
| CC(C)(C#N)C(=O)Nc1ncc(Cc2ccccc2F)s1 [Compound E012] | 631 nM |
| NC(=O)[C@@H]1CCCN1C(=O)Nc1ncc(Cc2cccc(F)c2)s1 [Compound E131] | 6310 nM |
| CN(CC(O)CO)C(=O)Nc1ncc(Cc2cccc(F)c2)s1 (centres unmarked) [Compound E106] | 3160 nM |
| CC[C@H](C(=O)Nc1ncc(Cc2cccc(F)c2)s1)N(C)S(N)(=O)=O [Compound E069] | 1580 nM |
| O=C(Nc1ncc(Cc2cccc(F)c2)s1)N1CCCC1CO (centres unmarked) [Compound E104] | 316 nM |
| CCN(C[C@H](C)O)C(=O)Nc1ncc(Oc2ccc(F)nc2)s1 [Compound E170] | 3.98 nM |
| C[C@H](O)CN(C)C(=O)Nc1ncc(Cc2cccc(Cl)c2)s1 [Compound E116] | 31.6 nM |
| C[C@@]1(C(=O)Nc2ncc(Cc3cc(F)cc(F)c3)s2)CCOC1 (single isomer, unassigned) [Compound E052, N-[5-[(3,5-difluorophenyl)methyl]thiazol-2-yl]-3-methyl-tetrahydrofuran-3-carboxamide] | 3.98 nM |
| O=C(Nc1ncc(Cc2cccc(F)c2)s1)C1(C(F)(F)F)CC1 [Compound E027] | 100 nM |
| COC(C)(C)C(=O)Nc1ncc(Cc2ccccc2F)s1 [Compound E019] | 251 nM |
| C[C@H](O)CN(C)C(=O)Nc1ncc(Cc2ccc(F)cc2F)s1 [Compound E141] | 50.1 nM |
| C[C@H](O)CN(C)C(=O)Nc1ncc(Oc2ccc(F)nc2)s1 [Compound E169] | 251 nM |
| CC(C)C(=O)Nc1ncc(Cc2cc(F)ccc2F)s1 [Compound E093] | 6.31 nM |
| COc1ccc(F)cc1Cc1cnc(NC(=O)N(C)C[C@H](C)O)s1 [Compound E143] | 398 nM |
| CC(C)c1nc2ccc(Oc3ccccc3)cc2[nH]1 [Compound E222, 6-phenoxy-2-(propan-2-yl)-1H-1,3-benzodiazole] | 3980 nM |
| Cc1cncc(Oc2cnc(NC(=O)N(C)C[C@H](C)O)s2)c1 [Compound E177] | 1580 nM |
| CCN(C[C@H](C)O)C(=O)Nc1ncc(Oc2cc(F)cc(C#N)c2)s1 [Compound E188] | 1.26 nM |
| C[C@H](O)CN(C)C(=O)Nc1ncc(Oc2ccccc2F)s1 [Compound E168] | 3.98 nM |
| CCN(C[C@H](C)O)C(=O)Nc1ncc(Oc2ccc(C#N)c(F)c2)s1 [Compound E163] | 1 nM |

| SMILES | IC50 |
| --- | --- |
| CC(C)CN(C)C(=O)Nc1ncc(Cc2cccc(F)c2)s1 [Compound E125] | 7.94 nM |
| CCN(C[C@H](C)O)C(=O)Nc1ncc(Oc2cccc(F)c2C#N)s1 [Compound E199] | 251 nM |
| CC1(C(=O)Nc2ncc(Cc3cccc(F)c3)s2)CCOCC1 [Compound E007] | 100 nM |
| CC(C)(F)C(=O)Nc1ncc(Cc2ccccc2F)s1 [Compound E021] | 251 nM |
| O=C(Nc1ncc(Cc2cccc(F)c2)s1)C1CCCC1O (centres unmarked) [Compound E038] | 1580 nM |
| C[C@H](O)CN(C)C(=O)Nc1ncc(Oc2ccc(F)cc2)s1 [Compound E151] | 2 nM |
| CC(CO)N(C)C(=O)Nc1ncc(Cc2cccc(F)c2)s1 (centres unmarked) [Compound E128] | 31.6 nM |
| O=C(Nc1ncc(Cc2cccc(F)c2)s1)C1(O)CC1 [Compound E026] | 2510 nM |
| C[C@H](O)CN(C)C(=O)Nc1ncc(Cc2ccc(C#N)cc2)s1 [Compound E145] | 3160 nM |
| C[C@H](O)CN(C)C(=O)Nc1ncc(Oc2ccc(F)c(C#N)c2)s1 [Compound E165] | 20 nM |
| CC(C)(O)C(=O)Nc1ncc(Cc2ccccc2F)s1 [Compound E005] | 3980 nM |
| CC(O)CN(CC(F)(F)F)C(=O)Nc1ncc(Cc2cccc(F)c2)s1 (centres unmarked) [Compound E119] | 200 nM |
| CCN(C[C@H](C)O)C(=O)Nc1ncc(Oc2ccc(F)c(C#N)c2)s1 [Compound E184] | 5.01 nM |
| C[C@]1(C(=O)Nc2ncc(Cc3cccc(F)c3)s2)CCCN1 [Compound E061, (2R)—N-[5-[(3-fluorophenyl)methyl]thiazol-2-yl]-2-methyl-pyrrolidine-2-carboxamide] | 2000 nM |
| NS(=O)(=O)N1CC[C@@H]1C(=O)Nc1ncc(Cc2cccc(F)c2)s1 [Compound E065] | 79.4 nM |
| CN1CCC[C@H]1C(=O)Nc1ncc(Cc2cccc(F)c2)s1 [Compound E058, (2S)—N-[5-[(3-fluorophenyl)methyl]thiazol-2-yl]-1-methyl-pyrrolidine-2-carboxamide] | 126 nM |
| C[C@H](O)CN(C)C(=O)Nc1ncc(Cc2cc(F)cc(F)c2)s1 [Compound E134] | 1.58 nM |
| CCN(C[C@H](C)O)C(=O)Nc1ncc(Oc2cncc(C#N)c2)s1 [Compound E173] | 31.6 nM |
